The values below come from US20230346956A1, “COMPLEX OF 7-DEACETYLFORSKOLIN AND PVP” (SciPharm S.à.r.l, priority 2020, published 2023).

Data set [1] can be described thus: Determination of water solubility (excess complex in water, filtration, HPLC). The data set is classed as physicochemical. Particulars: content of active in filtrate by HPLC. How it is done: For the solubility tests, the respective complex dried by means of rotary evaporator was used. A defined amount of water is added and then complex is added until an excess of 7-DAFSK-PVP is present. The supersaturated solution is sonicated, stirred and slightly heated (water bath 40° C.). The suspension is then filtered (0.45 μm filter) and the content of 7-DAFSK in the filtrate is determined by HPLC.

Data set [2] in a line: Amount going into solution in 6 mL H2O after the preparation procedure (0.45 μm filtration, HPLC). It is filed as physicochemical. Particulars: control sample without PVP12, heating method, 20 mg 7-DAFSK. On the procedure: For the complexation of 7-deacetyl-forskolin with PVP K12 (“Kollidon” 12 PF, Ph. Eur., USP, JP; BASF, average molar mass: about 2.5 kD), 20 mg of 7-DAFSK and 20 mg of PVP K12 were triturated in a porcelain crucible and 300 μL of ethanol was added and stirred. After 10 min, 100 μL of H2O was added, stirred, and allowed to stand again for 10 min. The solution was then heated to 140° C. in a drying oven within 40 min and left in it for a total of 45 min. After cooling, 3 mL of H2O was added and stirring was performed for 20-30 min. Then, the suspension was taken up with a syringe and filtered through 0.45 μm filter (hydrophilic). The crucible was rewashed with 3 mL H2O and the wash solution was also filtered through the filter. The content of 7-DAFSK dissolved in the 6 mL H2O was determined by HPLC. For the determination, the 7-DAFSK-PVP complex solution was diluted 1:10 with running medium. A mass fraction of 7-DAFSK in the total complex of 35 wt % was determined.
To optimize the content of 7-DAFSK in the total complex, the weight ratios of 7-DAFSK and PVP K12 used were varied (FIG. 3). […]
20 mg FSK and 40 mg PVP 25 were triturated in a porcelain crucible and 300 μL ethanol (alternatively propanol) was added and stirred. […] The content of FSK dissolved in the 6 mL H2O was determined by HPLC. A mass fraction of FSK in the total complex of <0.01 wt % was determined.

In data set [3] the test system is adenylyl cyclase (HEK293 cells stably expressing EP4 receptor). The data set is described as follows: cAMP assay, HEK293 cells with EP4 receptor. The data set is classed as cell-based, human. The note with it: 30 μM forskolin in DMSO, 100 μM 7-DAFSK in water or as PVP K12 complex in water, with 30 μM treprostinil, treprostinil alone = control, 30 min, room temperature. How it is done:
(§1) A cAMP assay was performed using HEK293 cells (human embryonic kidney cells, 1970) with the prostaglandin receptors EP2 or EP4, or the prostacyclin receptor IP. HEK293 cells were incubated with FCS and a radioligand ([^3H] adenine). The formation of cAMP ([^3H] cAMP) was monitored experimentally.
(§2) Day 1: HEK293 cells stably expressing either EP2, EP4, or IP receptors were grown on a 6-well plate in 2 mL DMEM medium containing 10% FCS and 2 μCi [^3H]-adenine and incubated for 16 hours.
(§3) Day 2: Cells were stimulated with 30 μM treprostinil alone or in combination with […] forskolin in DMSO, 100 μM 7-DAFSK in water, or 100 μM 7-DAFSK in 7-DAFSK-PVP K12 complex in water (in fresh medium for 30 minutes at room temperature). Cells were then lysed with 2.5% perchloric acid (PCA) for 30 minutes on ice. The PCA extract was neutralized with KOH and [^3H]cAMP was separated by sequential chromatography using DOWEX and alumina columns. Radioactivity was then measured using a scintillator.
(§4) An aliquot of PCA extract from each well was used to measure radioactivity.

The conditions of data set [4]: literature/background value; cited from earlier work.
The subject of data set [5] is adenylyl cyclase (HEK293 cells stably expressing EP2 receptor). The data set is described as follows: cAMP assay, HEK293 cells with EP2 receptor. It is filed as cell-based, human. The note with it: 30 μM forskolin in DMSO, 100 μM 7-DAFSK in water or as PVP K12 complex in water, with 30 μM treprostinil, treprostinil alone = control, 30 min, room temperature. On the procedure:
as §1, §2, §3, §4
(In general: Changes in cAMP serve as a functional read-out for many G protein-coupled receptors.)

The subject of data set [6] is adenylyl cyclase (HEK293 cells stably expressing IP receptor). The data set is described as follows: cAMP assay, HEK293 cells with IP receptor. It is filed as cell-based, human. Particulars: 30 μM forskolin in DMSO, 100 μM 7-DAFSK in water or as PVP K12 complex in water, with 30 μM treprostinil, treprostinil alone = control, 30 min, room temperature. How it is done:
as §1, §2, §3, §4

Values after ≈ are worked out from the molar mass of the structure shown.

Consider `C=C[C@@]1(C)CC(=O)[C@]2(O)[C@@]3(C)[C@@H](O)CCC(C)(C)[C@@H]3[C@H](O)[C@H](O)[C@@]2(C)O1` [7-DAFSK, 7-deacetyl-forskolin], for which the water solubility in data set [1] is 1000 µg/mL (≈ 2710 µM). In addition, in data set [2], the “proportion of the 7-DAFSK used brought into solution” value was “less than a quarter”. For the same compound, the “activation of adenylyl cyclase ([3H]cAMP formation)” value in data set [3], in data set [5] and in data set [6] was “enhanced activity” in each case. For the same compound, the solubility in water result in data set [4] is “up to 1 mg/mL”.
Compound `C=C[C@@]1(C)CC(=O)[C@]2(O)[C@@]3(C)[C@@H](O)CCC(C)(C)[C@@H]3[C@H](O)[C@H](OC(C)=O)[C@@]2(C)O1` [FSK, forskolin] yielded a solubility in data set [1] (40 °C, thermodynamic from solid) of 10 µg/mL (≈ 24.4 µM). Further, the solubility in water in data set [4] was 10 µg/mL (≈ 24.4 µM).
`CCCCC[C@H](O)CC[C@@H]1[C@H]2Cc3cccc(OCC(=O)O)c3C[C@H]2C[C@H]1O` [Treprostinil, treprostinil]: the “activation of adenylyl cyclase ([3H]cAMP formation)” value in data set [3], in data set [5] and in data set [6] was “no activation of AC” each time.

As a reminder, the solubility is the concentration that dissolves in the medium under given conditions. A lower solubility goes with little dissolved substance.
